According to ChEMBL document CHEMBL1201862, “PubChem BioAssay data set” (2004):
Calls of active or inactive are those of the source.

Legend:
[1] = target: Melanocortin receptor 4 (Homo sapiens, UniProt P32245); format: functional, cell-based;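 note: Cell-based assay with luminescence read-out, confirmatory dose-response testing for agonist activity of biased ligands at MC4R; human U2OS cells with tagged receptor and beta-arrestin; potency of agonists that increase receptor coupling to beta-arrestin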
[2] = bead-based luminescence quenchers, dual-tagged ARNT – biochemical, AlphaScreen, cherry-pick, artefact control for ARNT-TACC3 interaction inhibitor project, dose response (AID 651705); format: functional;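 note: AlphaScreen bead proximity signal that flags compounds interfering with the detection technology; potency reflects signal decrease which marks the compound as an assay artifact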
[3] = target: Low molecular weight phosphotyrosine protein phosphatase (Homo sapiens, UniProt P24666); format: functional; conditions: read-out: IC50_Mean;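 note: Dose-response confirmation assay measuring inhibition of LMPTP enzyme activity by fluorescence intensity read-out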
[4] = target: T1, Dual specificity protein phosphatase 6 (Rattus norvegicus, UniProt Q64346); test: inhibition of rat DUSP6 enzyme activity – biochemical, in vitro, primary screen (AID 425)
T1 sequence (Q64346 whole entry): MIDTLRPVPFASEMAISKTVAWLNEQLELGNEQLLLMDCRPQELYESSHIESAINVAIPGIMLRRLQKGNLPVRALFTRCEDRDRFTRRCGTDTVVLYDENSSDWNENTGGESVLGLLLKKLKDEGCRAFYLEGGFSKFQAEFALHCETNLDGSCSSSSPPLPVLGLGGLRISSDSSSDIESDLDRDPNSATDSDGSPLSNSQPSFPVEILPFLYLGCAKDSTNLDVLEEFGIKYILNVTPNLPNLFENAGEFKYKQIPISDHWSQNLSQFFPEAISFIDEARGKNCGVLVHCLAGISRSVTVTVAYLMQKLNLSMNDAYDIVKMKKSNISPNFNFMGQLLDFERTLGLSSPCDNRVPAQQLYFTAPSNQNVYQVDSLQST

[5] = target: T2, Apoptotic protease-activating factor 1 (Homo sapiens, UniProt O14727); test: SAR analysis of small molecule Activators of Apaf-1 in a Fluorescent assay.; format: functional; conditions: read-out: EC50_Mean;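 note: caspase-3 cleavage of fluorogenic Rh110 DEVD substrate downstream of apoptosome activation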
T2 sequence (O14727 whole entry): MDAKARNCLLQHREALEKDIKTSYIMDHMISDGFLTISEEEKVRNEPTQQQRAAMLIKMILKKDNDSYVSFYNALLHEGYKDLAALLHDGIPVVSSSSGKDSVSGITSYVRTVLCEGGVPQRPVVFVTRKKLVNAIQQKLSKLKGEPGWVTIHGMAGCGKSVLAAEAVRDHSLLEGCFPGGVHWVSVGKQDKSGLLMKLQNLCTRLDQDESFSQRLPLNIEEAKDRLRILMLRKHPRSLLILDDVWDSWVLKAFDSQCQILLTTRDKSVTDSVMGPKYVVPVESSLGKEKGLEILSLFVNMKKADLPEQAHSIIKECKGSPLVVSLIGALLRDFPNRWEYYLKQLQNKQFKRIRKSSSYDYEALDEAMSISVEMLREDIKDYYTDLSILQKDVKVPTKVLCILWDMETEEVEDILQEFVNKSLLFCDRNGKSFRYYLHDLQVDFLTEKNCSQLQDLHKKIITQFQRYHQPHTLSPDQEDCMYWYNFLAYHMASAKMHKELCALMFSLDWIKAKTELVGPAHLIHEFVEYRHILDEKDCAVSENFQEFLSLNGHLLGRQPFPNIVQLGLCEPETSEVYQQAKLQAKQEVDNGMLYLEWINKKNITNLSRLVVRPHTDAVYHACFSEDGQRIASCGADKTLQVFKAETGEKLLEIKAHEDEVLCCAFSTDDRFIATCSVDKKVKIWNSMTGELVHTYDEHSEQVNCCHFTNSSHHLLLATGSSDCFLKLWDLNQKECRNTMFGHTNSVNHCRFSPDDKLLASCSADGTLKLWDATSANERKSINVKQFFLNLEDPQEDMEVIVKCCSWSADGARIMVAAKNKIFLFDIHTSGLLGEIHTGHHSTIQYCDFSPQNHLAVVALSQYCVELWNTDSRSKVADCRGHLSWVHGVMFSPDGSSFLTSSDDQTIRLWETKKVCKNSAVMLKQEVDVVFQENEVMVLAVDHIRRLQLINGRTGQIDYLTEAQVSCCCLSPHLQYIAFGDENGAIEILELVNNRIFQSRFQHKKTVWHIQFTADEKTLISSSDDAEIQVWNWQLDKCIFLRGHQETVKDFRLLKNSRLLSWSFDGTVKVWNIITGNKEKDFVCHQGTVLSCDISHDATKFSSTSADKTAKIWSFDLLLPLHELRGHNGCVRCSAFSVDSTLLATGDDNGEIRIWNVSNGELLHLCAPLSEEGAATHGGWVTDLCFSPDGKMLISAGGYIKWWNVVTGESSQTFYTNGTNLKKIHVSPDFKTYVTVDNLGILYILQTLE

[6] = target: T3, Interleukin-8 (Homo sapiens, UniProt P10145); test: Dose Response confirmation of uHTS small molecule hits for cystic fibrosis induced NFkb Inhibitors in a TNFa-induced IL8 counterscreen.; format: functional; conditions: read-out: IC50_Mean
T3 sequence (P10145 whole entry): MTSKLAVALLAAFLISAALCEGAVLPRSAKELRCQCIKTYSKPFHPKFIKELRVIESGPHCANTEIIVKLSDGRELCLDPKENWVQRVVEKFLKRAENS

[7] = target: T3, Interleukin-8; test: Dose Response confirmation of uHTS small molecule hits for cystic fibrosis induced NFkb Inhibitors in a PAF-induced IL8 counterscreen.; format: functional; conditions: read-out: IC50_Mean
[8] = Trypanosoma cruzi growth suppression in host cells – NIH3T3 host cells, beta-gal luminescence, confirmation (AID 2044); format: functional, cell-based;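 note: intracellular parasites grown in NIH/3T3 mouse fibroblasts as host cells; luminescent beta-galactosidase reporter signal from transgenic T. cruzi replicating inside host cells; inhibitors lower the luminescence signal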
[9] = target: T4, Heat shock factor protein 1 (Mus musculus, UniProt P38532); test: enhancement of HSF1-driven luciferase signal – cell-based, NIH3T3, luminescence, dose retest, confirmation (AID 435004); format: functional;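 note: stress induced by proteasome inhibitor MG132 added 30 min after compound; luciferase reporter driven by HSF1 response element in NIH3T3 cells; actives raise luminescence as potentiators of the MG132 stress response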
T4 sequence (P38532 whole entry): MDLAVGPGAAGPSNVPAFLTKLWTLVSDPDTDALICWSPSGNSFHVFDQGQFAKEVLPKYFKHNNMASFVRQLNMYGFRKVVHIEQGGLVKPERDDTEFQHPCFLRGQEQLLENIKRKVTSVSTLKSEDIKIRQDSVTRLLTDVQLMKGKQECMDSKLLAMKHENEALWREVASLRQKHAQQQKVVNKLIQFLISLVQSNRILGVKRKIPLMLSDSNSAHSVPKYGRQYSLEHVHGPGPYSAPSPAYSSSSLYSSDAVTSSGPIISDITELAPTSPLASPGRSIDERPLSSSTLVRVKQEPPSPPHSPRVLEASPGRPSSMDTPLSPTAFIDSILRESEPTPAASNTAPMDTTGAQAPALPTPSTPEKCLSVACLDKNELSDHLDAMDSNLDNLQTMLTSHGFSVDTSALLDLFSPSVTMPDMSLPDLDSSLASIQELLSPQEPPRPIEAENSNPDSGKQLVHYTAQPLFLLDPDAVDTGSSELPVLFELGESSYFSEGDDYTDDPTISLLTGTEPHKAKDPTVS

[10] = target: T5, X-box-binding protein 1 (Homo sapiens, UniProt P17861); format: functional, Cricetulus griseus;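 note: confirmatory dose-response counter-screen serving a CHOP assay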
T5 sequence (P17861 whole entry): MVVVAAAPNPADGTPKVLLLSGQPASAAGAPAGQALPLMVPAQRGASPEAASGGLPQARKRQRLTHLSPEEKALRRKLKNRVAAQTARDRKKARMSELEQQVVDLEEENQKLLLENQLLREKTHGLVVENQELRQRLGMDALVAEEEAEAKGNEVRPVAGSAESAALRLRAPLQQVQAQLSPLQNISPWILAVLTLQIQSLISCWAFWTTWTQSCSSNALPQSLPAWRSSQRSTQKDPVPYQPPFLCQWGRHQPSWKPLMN

[11] = NIH3T3 cell viability loss – ATP luminescence, mouse fibroblasts, counter-screen, dose response (AID 2010); format: functional, cell-based;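 note: cells exposed to compound for about 90 hours before reading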
[12] = nonselective StAR promoter luciferase inhibitors – cell-based, luminescence, luciferase reporter, counter-screen for LRH-1 inverse agonist project, dose response (AID 651969); format: functional
[13] = target: Steroidogenic factor 1 (Homo sapiens, UniProt Q13285); test: Counterscreen for inverse agonists of the liver receptor homolog-1 (LRH-1; NR5A2): Luminescence-based cell-based high throughput dose response assay to identify inverse agonists of the Steroidogenic Factor 1 Nuclear Receptor (SF1; NR5A1).; format: functional
[14] = target: Nuclear receptor subfamily 5 group A member 2 (Homo sapiens, UniProt O00482); format: functional, cell-based;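 note: HEK293T cells transfected with LRH-1 and a StAR promoter luciferase reporter; potency for inhibitors that lower LRH-1 driven reporter light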
[15] = target: T6, Fatty acid synthase (Homo sapiens, UniProt P49327); test: inhibition of human FAS-TE enzyme activity – biochemical, kinetic fluorescence intensity, dose response (AID 624326); format: functional;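 note: rate of fluorescence rise from hydrolysis of a fluorogenic O-methyl fluorescein ester substrate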
[16] = target: Beta-2 adrenergic receptor (Homo sapiens, UniProt P07550); test: ADRB2 activation measured by internalization – cell-based, FAP fluorogen, flow cytometry, cherry pick 1, dose response (AID 588763); format: functional
[17] = target: T6, Fatty acid synthase; test: inhibition of human FAS-TE enzyme activity – biochemical, endpoint fluorescence intensity, uHTS hits, dose response (AID 624327); format: functional;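 note: fluorescence from hydrolysis of an O-methyl fluorescein acyl ester substrate by the enzyme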
[18] = test system: SN12K1; test: cells; format: functional; conditions: Homo sapiens
[19] = test system: P388; test: cells; format: functional; conditions: Mus musculus
[20] = test system: P388/ADR; test: cells; format: functional; conditions: Mus musculus
[21] = target: T7, Rac GTPase-activating protein 1 (Homo sapiens, UniProt Q9H0H5); test: blockers of MgcRacGAP-driven Rac1 GTP hydrolysis – biochemical, ADP Hunter fluorescence, primary and confirmatory, confirmation (AID 624330); format: functional
T7 sequence (Q9H0H5 whole entry): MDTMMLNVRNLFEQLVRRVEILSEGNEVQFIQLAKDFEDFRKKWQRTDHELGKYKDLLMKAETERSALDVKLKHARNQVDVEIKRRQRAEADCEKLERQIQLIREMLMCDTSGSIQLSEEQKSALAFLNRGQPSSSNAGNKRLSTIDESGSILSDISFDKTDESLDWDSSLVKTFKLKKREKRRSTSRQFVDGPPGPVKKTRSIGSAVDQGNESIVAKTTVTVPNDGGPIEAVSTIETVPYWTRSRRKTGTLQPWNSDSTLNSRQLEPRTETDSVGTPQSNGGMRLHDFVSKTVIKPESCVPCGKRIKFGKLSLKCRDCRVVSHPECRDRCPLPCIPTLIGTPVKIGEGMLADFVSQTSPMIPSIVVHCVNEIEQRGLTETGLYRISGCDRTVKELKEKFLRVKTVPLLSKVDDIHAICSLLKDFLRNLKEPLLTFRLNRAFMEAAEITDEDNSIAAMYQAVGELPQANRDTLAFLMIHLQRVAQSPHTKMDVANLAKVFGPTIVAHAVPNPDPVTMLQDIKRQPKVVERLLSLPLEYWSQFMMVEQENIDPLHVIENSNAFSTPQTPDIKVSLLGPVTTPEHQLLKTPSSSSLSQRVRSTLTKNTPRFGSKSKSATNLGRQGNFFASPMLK

[22] = target: Large T antigen (Simian virus 40, UniProt P03070); format: functional, Betapolyomavirus macacae;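 note: Confirmatory-stage PubChem screen for compounds that inhibit SV40 T antigen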
[23] = target: Paired box protein Pax-8 (Homo sapiens, UniProt Q06710); test: PAX8 transcriptional activity inhibition in RMG-I – RMG-I cells, luciferase, cherry-pick, dose response (AID 687027); format: functional, cell-based;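 note: luciferase reporter driven by Pax8 target thyroperoxidase promoter measured by SteadyGlo luminescence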
Paired box protein Pax-8, sequence (Q06710 whole entry): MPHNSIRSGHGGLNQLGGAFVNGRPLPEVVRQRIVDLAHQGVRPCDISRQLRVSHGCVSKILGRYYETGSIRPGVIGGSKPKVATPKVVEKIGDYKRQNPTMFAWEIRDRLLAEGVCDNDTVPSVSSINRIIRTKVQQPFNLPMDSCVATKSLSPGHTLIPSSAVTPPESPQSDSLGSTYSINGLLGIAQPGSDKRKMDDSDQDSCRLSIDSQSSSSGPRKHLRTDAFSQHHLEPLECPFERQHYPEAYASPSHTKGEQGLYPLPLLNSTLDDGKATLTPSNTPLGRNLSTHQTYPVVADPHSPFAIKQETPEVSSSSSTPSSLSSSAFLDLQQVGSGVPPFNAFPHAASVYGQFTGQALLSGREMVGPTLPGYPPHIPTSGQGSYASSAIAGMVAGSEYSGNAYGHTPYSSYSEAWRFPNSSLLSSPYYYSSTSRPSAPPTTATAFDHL

Steroidogenic factor 1, sequence (Q13285 whole entry): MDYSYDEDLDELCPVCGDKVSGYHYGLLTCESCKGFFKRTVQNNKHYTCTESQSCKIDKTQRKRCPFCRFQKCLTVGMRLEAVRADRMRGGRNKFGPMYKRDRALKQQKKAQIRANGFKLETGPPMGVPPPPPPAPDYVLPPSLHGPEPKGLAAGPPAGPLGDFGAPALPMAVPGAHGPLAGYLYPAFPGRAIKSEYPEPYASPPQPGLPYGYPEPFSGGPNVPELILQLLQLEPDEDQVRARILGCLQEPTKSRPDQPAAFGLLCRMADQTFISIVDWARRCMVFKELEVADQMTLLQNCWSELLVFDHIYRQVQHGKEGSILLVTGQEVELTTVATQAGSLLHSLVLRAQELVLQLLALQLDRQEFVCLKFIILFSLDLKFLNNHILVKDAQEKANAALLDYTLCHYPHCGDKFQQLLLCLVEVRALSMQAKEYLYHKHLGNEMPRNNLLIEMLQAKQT
Melanocortin receptor 4, sequence (P32245 whole entry): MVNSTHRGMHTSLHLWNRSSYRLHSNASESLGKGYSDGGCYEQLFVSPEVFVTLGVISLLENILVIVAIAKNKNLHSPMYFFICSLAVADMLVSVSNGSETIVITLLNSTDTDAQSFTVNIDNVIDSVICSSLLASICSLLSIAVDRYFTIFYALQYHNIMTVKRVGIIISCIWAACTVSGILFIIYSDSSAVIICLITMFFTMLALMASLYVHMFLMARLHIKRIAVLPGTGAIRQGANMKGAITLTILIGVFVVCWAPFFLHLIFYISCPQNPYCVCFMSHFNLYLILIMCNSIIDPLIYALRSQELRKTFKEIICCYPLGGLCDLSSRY
Beta-2 adrenergic receptor, sequence (P07550 whole entry): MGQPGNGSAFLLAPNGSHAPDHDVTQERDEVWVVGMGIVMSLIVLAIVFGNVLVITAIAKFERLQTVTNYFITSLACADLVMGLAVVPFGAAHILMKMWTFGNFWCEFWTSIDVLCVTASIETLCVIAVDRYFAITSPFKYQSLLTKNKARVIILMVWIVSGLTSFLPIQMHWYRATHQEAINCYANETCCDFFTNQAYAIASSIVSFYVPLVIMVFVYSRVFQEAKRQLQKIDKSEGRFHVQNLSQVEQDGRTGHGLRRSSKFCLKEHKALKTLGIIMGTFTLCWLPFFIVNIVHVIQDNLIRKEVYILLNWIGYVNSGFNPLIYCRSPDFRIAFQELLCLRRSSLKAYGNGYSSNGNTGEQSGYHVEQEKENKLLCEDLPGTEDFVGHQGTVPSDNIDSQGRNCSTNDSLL
Nuclear receptor subfamily 5 group A member 2, sequence (O00482 whole entry): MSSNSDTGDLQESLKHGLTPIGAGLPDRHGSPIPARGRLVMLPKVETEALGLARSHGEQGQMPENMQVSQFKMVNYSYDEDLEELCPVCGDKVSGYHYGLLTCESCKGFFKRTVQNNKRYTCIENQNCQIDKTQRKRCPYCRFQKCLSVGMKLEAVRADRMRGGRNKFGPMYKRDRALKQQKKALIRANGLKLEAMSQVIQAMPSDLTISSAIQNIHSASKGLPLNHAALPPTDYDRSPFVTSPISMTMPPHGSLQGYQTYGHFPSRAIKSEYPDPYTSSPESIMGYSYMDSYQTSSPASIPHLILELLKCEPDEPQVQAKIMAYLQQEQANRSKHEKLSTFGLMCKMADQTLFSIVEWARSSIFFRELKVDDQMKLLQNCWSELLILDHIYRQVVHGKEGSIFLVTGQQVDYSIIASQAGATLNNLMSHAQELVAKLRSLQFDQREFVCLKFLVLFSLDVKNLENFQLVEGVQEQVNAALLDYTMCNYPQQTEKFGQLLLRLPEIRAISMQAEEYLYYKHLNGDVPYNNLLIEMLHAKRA
Low molecular weight phosphotyrosine protein phosphatase, sequence (P24666 whole entry): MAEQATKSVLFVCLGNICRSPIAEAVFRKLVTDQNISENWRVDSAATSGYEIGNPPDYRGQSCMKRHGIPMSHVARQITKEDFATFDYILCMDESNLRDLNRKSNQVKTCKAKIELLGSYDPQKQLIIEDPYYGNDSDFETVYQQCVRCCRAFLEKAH
T6 sequence (P49327 whole entry): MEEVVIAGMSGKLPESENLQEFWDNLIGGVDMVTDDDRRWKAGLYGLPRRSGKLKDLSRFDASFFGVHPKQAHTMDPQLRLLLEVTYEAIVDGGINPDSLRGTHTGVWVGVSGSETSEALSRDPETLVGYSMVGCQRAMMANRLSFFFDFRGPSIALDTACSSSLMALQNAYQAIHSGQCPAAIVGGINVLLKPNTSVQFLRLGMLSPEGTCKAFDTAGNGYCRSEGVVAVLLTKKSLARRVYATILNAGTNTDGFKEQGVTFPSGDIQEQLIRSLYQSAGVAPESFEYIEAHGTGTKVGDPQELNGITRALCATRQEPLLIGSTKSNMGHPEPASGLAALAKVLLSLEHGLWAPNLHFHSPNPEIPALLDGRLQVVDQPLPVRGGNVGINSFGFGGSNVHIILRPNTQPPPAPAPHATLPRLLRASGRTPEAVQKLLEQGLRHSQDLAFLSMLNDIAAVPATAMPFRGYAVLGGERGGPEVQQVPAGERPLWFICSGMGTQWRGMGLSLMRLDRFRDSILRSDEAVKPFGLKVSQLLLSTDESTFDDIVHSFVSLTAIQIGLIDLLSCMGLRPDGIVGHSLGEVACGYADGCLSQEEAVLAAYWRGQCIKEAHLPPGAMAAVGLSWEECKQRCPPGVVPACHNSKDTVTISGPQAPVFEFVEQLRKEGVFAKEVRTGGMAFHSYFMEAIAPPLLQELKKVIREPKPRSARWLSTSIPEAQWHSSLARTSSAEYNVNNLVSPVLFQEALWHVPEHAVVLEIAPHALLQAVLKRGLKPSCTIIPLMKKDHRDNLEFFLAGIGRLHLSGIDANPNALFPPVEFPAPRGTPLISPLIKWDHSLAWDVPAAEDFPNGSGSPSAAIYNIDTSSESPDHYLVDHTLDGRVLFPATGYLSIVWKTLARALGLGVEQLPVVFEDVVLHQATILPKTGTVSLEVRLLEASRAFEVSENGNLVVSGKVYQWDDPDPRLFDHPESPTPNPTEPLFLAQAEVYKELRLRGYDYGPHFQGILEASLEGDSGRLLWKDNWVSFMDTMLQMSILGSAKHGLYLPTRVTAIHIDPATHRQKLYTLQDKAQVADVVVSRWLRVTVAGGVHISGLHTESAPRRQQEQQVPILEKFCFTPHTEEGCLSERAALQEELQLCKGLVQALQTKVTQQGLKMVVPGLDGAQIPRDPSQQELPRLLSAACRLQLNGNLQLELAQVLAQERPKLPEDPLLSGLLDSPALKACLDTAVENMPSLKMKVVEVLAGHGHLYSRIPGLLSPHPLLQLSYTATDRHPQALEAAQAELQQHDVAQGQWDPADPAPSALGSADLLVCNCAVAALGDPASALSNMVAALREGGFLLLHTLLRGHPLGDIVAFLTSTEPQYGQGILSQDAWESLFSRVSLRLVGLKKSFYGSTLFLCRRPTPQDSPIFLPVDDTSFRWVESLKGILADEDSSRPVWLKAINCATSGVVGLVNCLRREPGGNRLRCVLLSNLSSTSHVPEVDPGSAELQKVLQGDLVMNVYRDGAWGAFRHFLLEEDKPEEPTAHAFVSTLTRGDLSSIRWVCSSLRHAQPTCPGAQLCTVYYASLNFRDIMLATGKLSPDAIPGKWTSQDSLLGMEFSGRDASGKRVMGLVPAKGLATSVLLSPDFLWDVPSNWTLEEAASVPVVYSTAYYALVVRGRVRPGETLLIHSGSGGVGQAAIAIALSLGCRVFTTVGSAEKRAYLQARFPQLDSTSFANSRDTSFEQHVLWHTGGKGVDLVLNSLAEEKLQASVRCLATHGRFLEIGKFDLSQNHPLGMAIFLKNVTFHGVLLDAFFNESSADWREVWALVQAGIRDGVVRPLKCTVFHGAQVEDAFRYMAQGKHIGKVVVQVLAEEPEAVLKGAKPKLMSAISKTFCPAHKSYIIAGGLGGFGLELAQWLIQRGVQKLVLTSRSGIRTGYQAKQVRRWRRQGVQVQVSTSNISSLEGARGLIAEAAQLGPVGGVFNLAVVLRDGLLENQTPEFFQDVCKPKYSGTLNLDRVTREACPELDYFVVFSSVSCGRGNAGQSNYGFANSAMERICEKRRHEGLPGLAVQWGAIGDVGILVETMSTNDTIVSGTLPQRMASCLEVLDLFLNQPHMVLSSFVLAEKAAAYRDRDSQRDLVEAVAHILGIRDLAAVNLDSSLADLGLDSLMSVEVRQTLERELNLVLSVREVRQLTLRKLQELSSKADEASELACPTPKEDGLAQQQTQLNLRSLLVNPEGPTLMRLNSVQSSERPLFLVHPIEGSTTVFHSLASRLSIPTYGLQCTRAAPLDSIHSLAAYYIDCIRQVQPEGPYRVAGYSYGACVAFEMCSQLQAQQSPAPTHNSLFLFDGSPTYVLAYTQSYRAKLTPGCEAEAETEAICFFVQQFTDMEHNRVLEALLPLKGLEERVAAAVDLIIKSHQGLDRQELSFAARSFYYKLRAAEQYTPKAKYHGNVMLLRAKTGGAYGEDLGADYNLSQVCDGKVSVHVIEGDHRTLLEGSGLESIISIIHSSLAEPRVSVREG

NC(c1ccccc1)c1csc(NC(=O)Nc2ccccc2Oc2ccccc2)n1 (centres undefined)
EC50 [1]: > 89.2 µM (inactive)

O=C(NCCCn1ccnc1)Nc1ccc(Cl)c(Cl)c1
AC50 [2]: 99 µM (active)

O=C(O)c1cnc2ccc(S(=O)(=O)N3CCN(c4ccc(F)cc4)CC3)cc2c1O
IC50 [3]: 50.6 µM (inactive)
IC50 [4]: > 10 µM (not active)

O=C(O)[C@@H]1COC(c2ccccc2C(F)(F)F)=N1
EC50 [5]: > 100 µM (inactive)

Cc1ccc(N2C(=O)CC3(CC(c4ccc(Br)cc4)=NO3)C2=O)cc1 (centres undefined)
EC50 [5]: > 100 µM (inactive)

COc1ccc(-c2csc(NC3OC(=O)c4c3ccc(OC)c4OC)n2)cc1OC (centres undefined)
IC50 [6]: 0.969 µM (active)
IC50 [7]: 1.37 µM (active)

Cc1ccc(C2=NN(C(=O)c3cccs3)C(c3ccccc3O)C2)cc1 (centres undefined)
EC50 [8]: 2.49 µM (active)
EC50 [1]: > 89.2 µM (inactive)
EC50 [9]: > 260 µM (inactive)
Absolute IC50 (XBP1) [10]: 10 µM
EC50 [11]: > 60 µM (not active)

COc1ccc(CC(NC(C)=O)C(=O)NC2CCN(c3nnnn3-c3ccccc3)CC2)cc1 (centres undefined)
IC50 [12]: 35.9 µM (inactive)
IC50 [13]: 11.3 µM (inactive)
IC50 [14]: 16.5 µM (inactive)

COc1cc(-c2nnc(NC(=O)CS(=O)(=O)c3ccc(F)cc3)o2)cc(OC)c1OC
AC50 [2]: 102 µM (active)

COc1cc2ncc(S(=O)(=O)c3ccccc3)c(N3CCCC(C)C3)c2cc1OC (centres undefined)
IC50 [15]: 3.13 µM (active)
EC50 [16]: 1.07 µM (active)
IC50 [17]: 4.78 µM (active)

COc1cc2c(cc1Oc1ccc(OC)c3c1CC1c4c(cc(OC)c(OC)c4-3)CCN1C)CC1c3c(cc(OC)c(OC)c3-2)CCN1C (centres undefined)
GI50 [18]: 0.424 µM (active)
GI50 [19]: 1.77 µM (inactive)
GI50 [20]: 1.87 µM (inactive)

CCOC(=O)C1(C)C=C(Nc2ccc(O)cc2)C(=O)N1c1ccc(O)cc1 (centres undefined)
EC50 [16]: 1.09 µM (active)
IC50 [21]: 21.4 µM (active)
IC50 [22]: 8.11 µM (active)

CC(Nc1nc(-c2ccccc2F)nc2ccccc12)c1ccccc1 (centres undefined)
IC50 [3]: 5.48 µM (active)

O=C(CSc1nc(=O)n2cc(Cl)ccc2n1)Nc1ccc2c(c1)OCCO2
IC50 [12]: 35.9 µM (inactive)
IC50 [13]: 35.9 µM (inactive)
IC50 [14]: 35.9 µM (inactive)

COCCOCOc1ccc(OCc2ccccc2)cc1
GI50 [18]: > 100 µM (inactive)
GI50 [19]: 31.3 µM (inactive)
GI50 [20]: 24 µM (inactive)

C=C1C(=O)O[C@@H]2[C@H]1CC[C@H](C)[C@]1(O)CCC(=O)[C@@]21C [CORONOPILIN]
AC50 [23]: 5.43 µM (active)
IC50 [6]: 40.5 µM (inactive)
IC50 [7]: 7.49 µM (active)

Cc1ccccc1-c1nc2c(C(=O)NCCN(C)C)cccc2[nH]1
GI50 [18]: 30.5 µM (inactive)
GI50 [19]: 16.3 µM (inactive)
GI50 [20]: 26.5 µM (inactive)
